We go through 14 molecules from US8426446B2, “Acrylamide derivative and use thereof in manufacture of medicament” (Beijing Shiqiao Biopharm Co. Ltd., priority 2009, dated 2013).

The subject of this test is Human Leukemia Cell K562. Briefly: Inhibitory effects on Human Leukemia Cell K562 (MTT). It is filed as cell-based. Particulars: Homo sapiens, K562 cells, 72 h~120 h. The protocol: K562 cells were seeded in RPMI1640 cell culture solution containing 10% of fetal calf serum (supplemented with 100 ku/L of penicillin and streptomycin each). Culture dish was placed in the cell incubator under 5% of CO2 at 37° C. The culture solution was centrifuged and replaced every 2-3 days to passage and collect cells.
Cells in logarithmic growth phase were formulated into the cell suspensions at the required concentration with RPMI1640 culture solution containing 10% fetal calf serum. The resulting mixture was added to 96-wells cell culture plate at 3,000 cells per well (100 μl); after 12 hours of culture, to each well was added different amount of stock solution. The final concentrations of the samples are 100 μg/ml, 10 μg/ml, 1 μg/ml, […], and 0.01 μg/ml respectively in triplicate. After 72 h˜120 h, supernatant was discarded. To each well was added […] fresh serum-free culture solution containing 5 mg/ml blue tetrazolium (MTT). After culturing for 4 hours at 37° C., the mixture was centrifuged at 3000 rpm/min and the supernatant was discarded. Formazan was dissolved with 200 μl DMSO. After vortex oscillation for 1 min, absorbance value (OD-value) was measured on microplate reader at the wavelength of 570/450 nm. Inhibition ratio=(control group OD-value−drug group OD-value)/control group OD-value×100%.
The molecule `Cc1ccc(C(=O)Nc2ccc(C)c(NC(=O)/C=C/c3cccnc3)c2)cc1` [compound 1, N-(4-methyl-3-(3-(pyridin-3-yl)acrylamido)phenyl)-4-methylbenzamide] displayed a half-maximal inhibitory concentration (IC50) of less than 2.7 nM.

`Cc1ccc(NC(=O)c2ccc(F)cc2)cc1NC(=O)/C=C/c1cccnc1` [compound 2, N-(4-methyl-3-(3-(pyridin-3-yl)acrylamido)phenyl)-4-fluoro benzamide] showed a half-inhibitory concentration (IC50) of less than 2.7 nM.

In the case of `Cc1ccc(NC(=O)c2ccc(F)cc2F)cc1NC(=O)/C=C/c1cccnc1` [compound 3, N-(4-methyl-3-(3-(pyridin-3-yl)acrylamido)phenyl)-2,4-difluoro benzamide], the IC50 was less than 2.5 nM.

For the molecule `Cc1ccc(NC(=O)c2ccc(Cl)cc2Cl)cc1NC(=O)/C=C/c1cccnc1` [compound 4, N-(4-methyl-3-(3-(pyridin-3-yl)acrylamido)phenyl)-2,4-dichloro benzamide], the half-maximal inhibitory concentration (IC50) lay within 2 to 20 nM.

In turn, `Cc1ccc(NC(=O)c2cc(C(F)(F)F)cc(C(F)(F)F)c2)cc1NC(=O)/C=C/c1cccnc1` [compound 5, N-(4-methyl-3-(3-(pyridin-3-yl)acrylamido)phenyl)-3,5-bis-(trifluoromethyl)benzamide] had an IC50 of 1 to 20 nM.

For `Cc1ccc(NC(=O)c2ccc(C)c(C(F)(F)F)c2)cc1NC(=O)/C=C/c1cccnc1` [compound 7, N-(4-methyl-3-(3-(pyridin-3-yl)acrylamido)phenyl)-3-(rifluoromethyl)-4-methyl benzamide], the IC50 was less than 1 nM.

In the case of `Cc1ccc(NC(=O)c2cc(F)cc(C(F)(F)F)c2)cc1NC(=O)/C=C/c1cccnc1` [compound 10, N-(4-methyl-3-(3-(pyridin-3-yl)acrylamido)phenyl)-3-fluoro-5-(trifluoromethyl)benzamide], the half-inhibitory concentration (IC50) was less than 1 nM.

Take `Cc1ccc(NC(=O)c2ccc(CN3CCN(C)CC3)cc2)cc1NC(=O)/C=C/c1cccnc1` [compound 11, N-(4-methyl-3-(3-(pyridin-3-yl)acrylamido)phenyl)-4-((4-methylpiperazin-1-yl)methyl)benzamide]: the IC50 is less than 2 nM.

Turning to `Cc1ccc(NC(=O)c2ccc(CN3C[C@@H](C)N[C@@H](C)C3)cc2)cc1NC(=O)/C=C/c1cccnc1` [compound 12], the half-inhibitory concentration (IC50) is less than 5 nM.

`CCN1CCN(Cc2ccc(C(=O)Nc3ccc(C)c(NC(=O)/C=C/c4cccnc4)c3)cc2)CC1` [compound 13, N-(4-methyl-3-(3-(pyridin-3-yl)acrylamido)phenyl)-4-((4-ethylpiperazin-1-yl)methyl)benzamide] displayed an IC50 of 2 nM.

In turn, `Cc1ccc(NC(=O)c2ccc(CN3CCN(C)CC3)c(C(F)(F)F)c2)cc1NC(=O)/C=C/c1cccnc1` [compound 19, N-(4-methyl-3-(3-(pyridin-3-yl)acrylamido)phenyl)-4-((4-methylpiperazin-1-yl)methyl)-3-(trifluoromethyl)benzamide] returned a 50% inhibitory concentration (IC50) of less than 1 nM.

Molecule `CCN1CCN(Cc2ccc(C(=O)Nc3ccc(C)c(NC(=O)/C=C/c4cccnc4)c3)cc2C(F)(F)F)CC1` [compound 20, N-(4-methyl-3-(3-(pyridin-3-yl)acrylamido)phenyl)-4-((4-ethylpiperazin-1-yl)methyl)-3-(trifluoromethyl)benzamide] yielded an IC50 of less than 1 nM.

With `Cc1ccc(NC(=O)c2ccc(CN3CCOCC3)c(C(F)(F)F)c2)cc1NC(=O)/C=C/c1cccnc1` [compound 21, N-(4-methyl-3-(3-(pyridin-3-yl)acrylamido)phenyl)-4-(morpholin-4-ylmethyl)-3-(trifluoromethyl)benzamide], half-maximal inhibition (IC50) required 2 nM.

As to `Cc1ccc(NC(=O)c2ccc(CN3CC[C@@H](N(C)C)C3)c(C(F)(F)F)c2)cc1NC(=O)/C=C/c1cccnc1` [compound 22, N-(4-methyl-3-(3-(pyridin-3-yl)acrylamido)phenyl)-4-(((R)-3-(dimethylamino)pyrrolidin-1-yl)methyl)-3-(trifluoromethyl)benzamide], the IC50 is less than 1 nM.

Usually IC50 stands for the concentration that inhibits the measured activity by half. Low values mean higher potency, high ones lower potency.
